Laboratory results taken from patent publication US20240174647A1 (NEURON23, INC., priority 2022, published 2024).

Target: wt human LRRK2, catalytic site (Homo sapiens (Human), UniProt Q5S007)
Assay: TR-FRET LanthaScreen Tb Kinase Activity Assay (LRRK2 kinase inhibition)
Assay type: biochemical
Conditions: 2 nM wt human LRRK2, 400 nM fluorescein-ERM (LRRKtide) peptide, 38 μM ATP, 120 minutes at room temperature
Procedure, shortened: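 LanthaScreen TR-FRET with 2 nM wt human LRRK2 catalytic site, 400 nM fluorescein-ERM (LRRKtide) peptide and 38 µM ATP in Kinase Buffer A; 120 min at room temperature. Phosphorylation detected with EDTA and Tb-anti-pLRRKtide after 60 min; IC50 from emission ratios.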

wt human LRRK2, catalytic site, sequence (Q5S007 1879-2138): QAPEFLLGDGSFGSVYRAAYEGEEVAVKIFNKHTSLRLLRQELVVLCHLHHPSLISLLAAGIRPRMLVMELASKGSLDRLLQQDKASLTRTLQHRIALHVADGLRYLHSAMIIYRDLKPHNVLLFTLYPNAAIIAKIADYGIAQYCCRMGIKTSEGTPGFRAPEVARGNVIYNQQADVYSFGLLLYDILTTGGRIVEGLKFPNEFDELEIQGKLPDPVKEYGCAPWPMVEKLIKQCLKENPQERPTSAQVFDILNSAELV

| Structure (SMILES) | IC50 [nM] |
| --- | --- |
| N#CCn1ncc2c(Nc3ncc(C(F)(F)F)c(NC4CC(F)(F)C4)n3)cccc21 [Example 96, 2-(4-((4-((3,3-difluorocyclobutyl)amino)-5-(trifluoromethyl)pyrimidin-2-yl)amino)-1H-indazol-1-yl)acetonitrile] | < 50 |
| CNc1nc(Nc2cc(F)cc3[nH]ncc23)ncc1C(F)(F)F [Example 25, N2-(6-fluoro-1H-indazol-4-yl)-N4-methyl-5-(trifluoromethyl)pyrimidine-2,4-diamine] | < 50 |
| CC(C)(O)Cn1ncc2c(Nc3ncc(C(F)F)c(NC4CC4)n3)ccc(F)c21 [Example 175, 1-[4-[[4-(cyclopropylamino)-5-(difluoromethyl)pyrimidin-2-yl]amino]-7-fluoro-indazol-1-yl]-2-methyl-propan-2-ol] | < 50 |
| CNc1nc(Nc2cccc3c2cnn3C)ncc1Cl [Example 79, 5-chloro-N4-methyl-N2-(1-methyl-1H-indazol-4-yl)pyrimidine-2,4-diamine] | < 50 |
| O=S(=O)(C1CC1)n1ncc2c(Nc3ncc(C(F)(F)F)c(NCCF)n3)cccc21 [Example 137, N^2-(1-(cyclopropylsulfonyl)-1H-indazol-4-yl)-N^4-(2-fluoroethyl)-5-(trifluoromethyl) pyrimidine-2,4-diamine] | < 50 |
| CNc1nc(Nc2ccc(CCC(=O)N3CCOCC3)c3c2cnn3C)ncc1C(F)(F)F [Example 58, 3-(1-methyl-4-((4-(methylamino)-5-(trifluoromethyl)pyrimidin-2-yl)amino)-1H-indazol-7-yl)-1-morpholinopropan-1-one] | < 50 |
| CS(=O)(=O)n1ncc2c(Nc3ncc(C(F)(F)F)c(N[C@@H]4CCOC4)n3)cccc21 [Example 148, (R)—N^2-(1-(methylsulfonyl)-1H-indazol-4-yl)-N-(tetrahydrofuran-3-yl)-5-(trifluoromethyl)pyrimidine-2,4-diamine] | < 50 |
| CNc1nc(Nc2cc(C#N)cc3[nH]ncc23)ncc1C(F)(F)F [Example 49, 4-((4-(methylamino)-5-(trifluoromethyl)pyrimidin-2-yl)amino)-1H-indazole-6-carbonitrile] | < 50 |
| CNc1nc(Nc2cccn3cncc23)ncc1C(F)(F)F [Example 130, N^2-(imidazo[1,5-a]pyridin-8-yl)-N^4-methyl-5-(trifluoromethyl)pyrimidine-2,4-diamine] | < 50 |
| CNc1nc(Nc2cccc3nccn23)ncc1C(F)(F)F [Example 121, N^2-imidazo[1,2-a]pyridin-5-yl-N^4-methyl-5-(trifluoromethyl)pyrimidine-2,4-diamine] | ≥ 200 |
| CS(=O)(=O)CCn1ncc2c(Nc3ncc(C(F)(F)F)c(N[C@H]4C[C@H]4F)n3)cccc21 [Example 198, N^4-((1S,2R)-2-fluorocyclopropyl)-N^2-(1-(2-(methylsulfonyl)ethyl)-1H-indazol-4-yl)-5-(trifluoromethyl)pyrimidine-2,4-diamine] | < 50 |
| CC(C)(C)n1ncc2c(Nc3ncc(C(F)(F)F)c(NC4CC4)n3)cccc21 [Example 196, N^2-(1-tert-butylindazol-4-yl)-N^4-cyclopropyl-5-(trifluoromethyl)pyrimidine-2,4-diamine] | < 50 |
| CNc1nc(Nc2cc(/C=C/C(=O)N3CCOCC3)cc3c2cnn3C)ncc1C(F)(F)F [Example 46, (E)-3-(1-methyl-4-((4-(methylamino)-5-(trifluoromethyl)pyrimidin-2-yl)amino)-1H-indazol-6-yl)-1-morpholinoprop-2-en-1-one] | < 50 |
| CCNc1nc(Nc2cccc3c2cnn3C(C)(C)C#N)ncc1C(F)(F)F [Example 154, 2-(4-((4-(ethylamino)-5-(trifluoromethyl)pyrimidin-2-yl)amino)-1H-indazol-1-yl)-2-methylpropanenitrile] | < 50 |
| C=Cc1cc2cn[nH]c2cc1Nc1ncc(C(F)(F)F)c(NC)n1 [Example 120, N^4-methyl-5-(trifluoromethyl)-N^2-(5-vinyl-1H-indazol-6-yl)pyrimidine-2,4-diamine] | 50 to 200 |
| FC(F)(F)c1cnc(Nc2ccc3c4c2cnn4CCO3)nc1NC1CC1 [Example 179, N^4-cyclopropyl-N^2-(2,3-dihydro-[1,4]oxazino[2,3,4-hi]indazol-7-yl)-5-(trifluoromethyl)pyrimidine-2,4-diamine] | < 50 |
| CNc1nc(Nc2ccc(C3=CCOCC3)c3c2cnn3C)ncc1C(F)(F)F [Example 86, N2-(7-(3,6-dihydro-2H-pyran-4-yl)-1-methyl-11H-indazol-4-yl)-N4-methyl-5-(trifluoromethyl)pyrimidine-2,4-diamine] | < 50 |
| CC(C)(O)Cn1ncc2c(Nc3ncc(C(F)(F)F)c(NC4CC4)n3)ccnc21 [Example 201, 1-(4-((4-(cyclopropylamino)-5-(trifluoromethyl)pyrimidin-2-yl)amino)-1H-pyrazolo[3,4-b]pyridin-1-yl)-2-methylpropan-2-ol] | < 50 |
| CNc1nc(Nc2c(F)ccc3[nH]ncc23)ncc1C(F)(F)F [Example 22, N2-(5-fluoro-1H-indazol-4-yl)-N4-methyl-5-(trifluoromethyl)pyrimidine-2,4-diamine] | 50 to 200 |

| Structure (SMILES) | IC50 [nM] |
| --- | --- |
| CCNc1nc(Nc2cccc3c2cnn3S(C)(=O)=O)nc2[nH]cc(Cl)c12 [Example 151, 5-chloro-N^4-ethyl-N^2-(1-methylsulfonylindazol-4-yl)-7H-pyrrolo[2,3-d]pyrimidine-2,4-diamine] | < 50 |
| CNc1nc(Nc2cc3[nH]ncc3cc2C)ncc1C(F)(F)F [Example 2] | < 50 |
| CCS(=O)(=O)CCn1ncc2c(Nc3ncc(C(F)(F)F)c(NC4CC4)n3)cccc21 [Example 171, N^4-cyclopropyl-N^2-(1-(2-(ethylsulfonyl)ethyl)-1H-indazol-4-yl)-5-(trifluoromethyl)pyrimidine-2,4-diamine] | < 50 |
| CNc1nc(Nc2cc3[nH]ncc3cc2F)ncc1C(F)(F)F [Example 114, N^2-(5-fluoro-1H-indazol-6-yl)-N^4-methyl-5-(trifluoromethyl)pyrimidine-2,4-diamine] | < 50 |
| CNc1nc(Nc2cc(CC#N)cc3[nH]ncc23)ncc1C(F)(F)F [Example 50, 2-(4-((4-(methylamino)-5-(trifluoromethyl)pyrimidin-2-yl)amino)-1H-indazol-6-yl)acetonitrile] | < 50 |
| CC(C)(C#N)n1ncc2c(Nc3ncc(C(F)(F)F)c(NC4CC(O)C4)n3)cccc21 (centres unmarked) [Example 157, 2-[4-[[4-[(3-hydroxycyclobutyl)amino]-5-(trifluoromethyl)pyrimidin-2-yl]amino]indazol-1-yl]-2-methyl-propanenitrile] | < 50 |
| Cn1ncc2c(Nc3ncc(C(F)(F)F)c(NC4CC4)n3)cccc21 [Example 68, N4-cyclopropyl-N2-(1-methyl-1H-indazol-4-yl)-5-(trifluoromethyl)pyrimidine-2,4-diamine] | < 50 |
| CC1(Nc2nc(Nc3cccc4c3cnn4CC#N)ncc2C(F)(F)F)CC1 [Example 105, 2-(4-((4-((1-methylcyclopropyl)amino)-5-(trifluoromethyl)pyrimidin-2-yl)amino)-1H-indazol-1-yl)acetonitrile] | < 50 |
| CC1(Nc2nc(Nc3cccc4c3cnn4CCS(C)(=O)=O)ncc2C(F)(F)F)CC1 [Example 191, N^4-(1-methylcyclopropyl)-N^2-(1-(2-(methylsulfonyl)ethyl)-1H-indazol-4-yl)-5-(trifluoromethyl)pyrimidine-2,4-diamine] | < 50 |
| CC(C)S(=O)(=O)CCn1ncc2c(Nc3ncc(C(F)(F)F)c(NC4CC4)n3)cccc21 [Example 194, N4-cyclopropyl-N^2-(1-(2-(isopropylsulfonyl)ethyl)-1H-indazol-4-yl)-5-(trifluoromethyl)pyrimidine-2,4-diamine] | < 50 |
| CNc1nc(Nc2ccc(CC#N)c3c2cnn3C)ncc1C(F)(F)F [Example 55, 2-(1-methyl-4-((4-(methylamino)-5-(trifluoromethyl)pyrimidin-2-yl)amino)-1H-indazol-7-yl)acetonitrile] | < 50 |
| CNc1nc(Nc2ccc3cn(C)nc3c2C)ncc1C(F)(F)F [Example 19, N2-(2,7-dimethyl-2H-indazol-6-yl)-N4-methyl-5-(trifluoromethyl)pyrimidine-2,4-diamine] | < 50 |
| CNc1nc(Nc2cccc3[nH]ncc23)ncc1C(F)(F)F [Example 21, N2-(1H-indazol-4-yl)-N4-methyl-5-(trifluoromethyl)pyrimidine-2,4-diamine] | < 50 |
| CC(C)(C#N)n1ncc2c(Nc3ncc(C(F)(F)F)c(NC4CCC4)n3)cccc21 [Example 113, 2-(4-((4-(cyclobutylamino)-5-(trifluoromethyl)pyrimidin-2-yl)amino)-1H-indazol-1-yl)-2-methylpropanenitrile] | < 50 |
| CC(C)(O)Cn1ncc2c(Nc3ncc(C(F)(F)F)c(NC4CC4)n3)cccc21 [Example 146, 1-[4-[[4-(cyclopropylamino)-5-(trifluoromethyl)pyrimidin-2-yl]amino]indazol-1-yl]-2-methyl-propan-2-ol] | < 50 |
| CC(C)(O)Cn1ncc2c(Nc3ncc(C(F)F)c(NC4CC4)n3)cccc21 [Example 173, 1-[4-[[4-(cyclopropylamino)-5-(difluoromethyl)pyrimidin-2-yl]amino]indazol-1-yl]-2-methyl-propan-2-ol] | < 50 |
| CNc1nc(Nc2cc(F)cc3c2cnn3CC#N)ncc1C(F)(F)F [Example 91, 2-(6-fluoro-4-((4-(methylamino)-5-(trifluoromethyl)pyrimidin-2-yl)amino)-1H-indazol-1-yl)acetonitrile] | < 50 |
| CCn1ncc2c(Nc3ncc(C(F)(F)F)c(NC)n3)cccc21 [Example 98, N2-(1-ethyl-1H-indazol-4-yl)-N4-methyl-5-(trifluoromethyl)pyrimidine-2,4 diamine] | < 50 |
| COCCn1ncc2c(Nc3ncc(C(F)(F)F)c(NC4CC4)n3)cccc21 [Example 133, N^4-cyclopropyl-N^2-[1-(2-methoxyethyl)indazol-4-yl]-5-(trifluoromethyl) pyrimidine-2,4-diamine] | < 50 |
